Reference: ChEMBL document CHEMBL1201862, “PubChem BioAssay data set” (2004)
The source made the active and inactive calls.

Assays:
[1] = microbe, parasite or virus in culture; format: functional; settings: Mycobacterium tuberculosis
[2] = M. tuberculosis growth inhibition, HTS (AID 449762); format: functional
[3] = RKO cell viability reduction, dose response, CellTiter-Glo luminescence (AID 1117322); format: functional
[4] = rise of 4N DNA cells, HeLa – IC50, dose response (AID 1117351); format: functional, cell-based
[5] = molecular target: T1, Polyadenylate-binding protein 1 (Homo sapiens, UniProt P11940); assay: MLLE domain peptide-binding blockers, IC50 – biochemical, fluorescence polarization, FITC-PAM2 peptide, dose response (AID 602259); format: functional; settings: read-out: IC50_Mean
T1 sequence (P11940 whole entry, the tested form may be a part): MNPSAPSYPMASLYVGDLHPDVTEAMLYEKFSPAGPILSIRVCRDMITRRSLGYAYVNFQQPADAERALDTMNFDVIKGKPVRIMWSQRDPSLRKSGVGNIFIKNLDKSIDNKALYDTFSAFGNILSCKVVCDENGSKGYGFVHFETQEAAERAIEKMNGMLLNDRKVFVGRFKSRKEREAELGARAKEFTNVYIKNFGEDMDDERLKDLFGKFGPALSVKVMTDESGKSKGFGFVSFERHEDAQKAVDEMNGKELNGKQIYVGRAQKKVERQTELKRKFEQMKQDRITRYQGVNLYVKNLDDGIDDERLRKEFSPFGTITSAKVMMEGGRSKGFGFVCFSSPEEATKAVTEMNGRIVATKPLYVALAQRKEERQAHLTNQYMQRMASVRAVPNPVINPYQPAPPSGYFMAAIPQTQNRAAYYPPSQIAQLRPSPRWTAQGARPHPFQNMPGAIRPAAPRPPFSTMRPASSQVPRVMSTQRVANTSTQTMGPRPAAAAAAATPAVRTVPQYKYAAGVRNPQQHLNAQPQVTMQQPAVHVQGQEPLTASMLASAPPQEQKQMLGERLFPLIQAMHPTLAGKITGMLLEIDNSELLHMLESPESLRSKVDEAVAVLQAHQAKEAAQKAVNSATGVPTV

[6] = rise of 2N DNA cells, HeLa – IC50, dose response (AID 1117349); format: functional, cell-based
[7] = SNU-C1 cell viability reduction, dose response, CellTiter-Glo luminescence (AID 1117323); format: functional, cell-based
[8] = Reduced DLD-1 viability, concentration-response, CellTiter-Glo luminescence (AID 1117352); format: functional
[9] = molecular target: T2, Long-chain-fatty-acid--AMP ligase FadD28 (Mycobacterium tuberculosis, UniProt P9WQ59); assay: Fluorescence polarization aasay to screen for inhibitors that compete for the binding of FadD28 to a bisubstrate Measured in Biochemical System Using Plate Reader - 2147-01_Inhibitor_Dose_CherryPick_Activity.; format: functional, Mycobacterium tuberculosis H37Rv
T2 sequence (P9WQ59 whole entry): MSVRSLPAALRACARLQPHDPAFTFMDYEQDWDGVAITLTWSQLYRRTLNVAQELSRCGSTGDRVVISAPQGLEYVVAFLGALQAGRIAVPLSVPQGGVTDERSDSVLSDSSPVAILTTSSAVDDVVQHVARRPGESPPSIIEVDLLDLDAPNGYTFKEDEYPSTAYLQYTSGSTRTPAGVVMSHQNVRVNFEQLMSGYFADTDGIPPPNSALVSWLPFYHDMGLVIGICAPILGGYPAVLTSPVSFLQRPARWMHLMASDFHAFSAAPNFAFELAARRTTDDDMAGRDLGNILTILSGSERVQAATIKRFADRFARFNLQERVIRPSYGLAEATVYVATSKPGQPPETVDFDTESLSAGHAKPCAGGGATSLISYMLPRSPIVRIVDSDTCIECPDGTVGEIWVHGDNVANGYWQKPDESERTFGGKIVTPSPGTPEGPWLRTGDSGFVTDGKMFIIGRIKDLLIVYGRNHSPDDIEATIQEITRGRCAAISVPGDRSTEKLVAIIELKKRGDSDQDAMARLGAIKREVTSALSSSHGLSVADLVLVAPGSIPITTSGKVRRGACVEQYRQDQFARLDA

[10] = molecular target: T3, Histone-lysine N-methyltransferase NSD2 (Homo sapiens, UniProt O96028); format: biochemical
T3 sequence (O96028 whole entry): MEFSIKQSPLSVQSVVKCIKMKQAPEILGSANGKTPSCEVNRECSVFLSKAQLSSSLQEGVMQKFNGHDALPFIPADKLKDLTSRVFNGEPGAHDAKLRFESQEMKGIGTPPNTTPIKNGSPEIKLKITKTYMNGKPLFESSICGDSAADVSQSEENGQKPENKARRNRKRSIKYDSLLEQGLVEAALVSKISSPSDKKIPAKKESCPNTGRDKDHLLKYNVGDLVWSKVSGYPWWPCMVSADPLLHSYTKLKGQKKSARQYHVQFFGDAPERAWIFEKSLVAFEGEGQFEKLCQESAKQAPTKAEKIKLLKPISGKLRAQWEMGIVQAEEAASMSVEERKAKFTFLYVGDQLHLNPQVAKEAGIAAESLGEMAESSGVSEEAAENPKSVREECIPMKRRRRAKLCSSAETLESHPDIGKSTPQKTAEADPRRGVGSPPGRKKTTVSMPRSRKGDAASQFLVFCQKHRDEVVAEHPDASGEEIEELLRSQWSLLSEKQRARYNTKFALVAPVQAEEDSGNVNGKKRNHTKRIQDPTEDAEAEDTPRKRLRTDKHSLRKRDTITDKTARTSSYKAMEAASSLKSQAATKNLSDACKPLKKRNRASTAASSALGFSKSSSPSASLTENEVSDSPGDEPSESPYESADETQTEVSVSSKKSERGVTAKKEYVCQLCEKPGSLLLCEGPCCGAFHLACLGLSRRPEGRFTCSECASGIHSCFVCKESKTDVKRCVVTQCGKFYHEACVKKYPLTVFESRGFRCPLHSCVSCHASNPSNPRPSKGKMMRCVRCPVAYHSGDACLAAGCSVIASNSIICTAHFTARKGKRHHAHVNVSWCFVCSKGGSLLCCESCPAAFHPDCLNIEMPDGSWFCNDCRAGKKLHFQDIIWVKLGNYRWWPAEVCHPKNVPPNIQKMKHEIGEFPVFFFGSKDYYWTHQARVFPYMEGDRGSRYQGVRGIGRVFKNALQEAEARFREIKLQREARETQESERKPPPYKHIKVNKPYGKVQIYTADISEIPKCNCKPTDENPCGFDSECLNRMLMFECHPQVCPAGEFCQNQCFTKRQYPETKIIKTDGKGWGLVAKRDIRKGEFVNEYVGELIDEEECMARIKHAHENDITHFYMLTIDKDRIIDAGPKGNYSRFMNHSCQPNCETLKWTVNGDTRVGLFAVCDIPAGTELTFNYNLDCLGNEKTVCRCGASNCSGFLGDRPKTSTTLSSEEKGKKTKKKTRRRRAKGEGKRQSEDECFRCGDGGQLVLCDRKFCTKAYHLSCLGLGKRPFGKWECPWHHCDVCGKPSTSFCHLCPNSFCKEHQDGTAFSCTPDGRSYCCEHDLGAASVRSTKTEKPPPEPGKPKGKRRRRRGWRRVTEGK

[11] = CellTiter-Glo luminescence survival assay, SW480 colon tumor line, concentration-response curve, half-maximal inhibitory concentration (AID 1117338); format: functional
[12] = molecular target: T4, Microphthalmia-associated transcription factor (Homo sapiens, UniProt O75030); assay: reducers of TRPM1 reporter luminescence, concentration series – cell-based, SK-MEL-5, cherry-picked, set 3, MITF inhibitor project, dose response (AID 493073); format: functional;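 note: SK-MEL-5 melanoma cells with luciferase driven by the MITF target TRPM1 promoter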
T4 sequence (O75030 whole entry): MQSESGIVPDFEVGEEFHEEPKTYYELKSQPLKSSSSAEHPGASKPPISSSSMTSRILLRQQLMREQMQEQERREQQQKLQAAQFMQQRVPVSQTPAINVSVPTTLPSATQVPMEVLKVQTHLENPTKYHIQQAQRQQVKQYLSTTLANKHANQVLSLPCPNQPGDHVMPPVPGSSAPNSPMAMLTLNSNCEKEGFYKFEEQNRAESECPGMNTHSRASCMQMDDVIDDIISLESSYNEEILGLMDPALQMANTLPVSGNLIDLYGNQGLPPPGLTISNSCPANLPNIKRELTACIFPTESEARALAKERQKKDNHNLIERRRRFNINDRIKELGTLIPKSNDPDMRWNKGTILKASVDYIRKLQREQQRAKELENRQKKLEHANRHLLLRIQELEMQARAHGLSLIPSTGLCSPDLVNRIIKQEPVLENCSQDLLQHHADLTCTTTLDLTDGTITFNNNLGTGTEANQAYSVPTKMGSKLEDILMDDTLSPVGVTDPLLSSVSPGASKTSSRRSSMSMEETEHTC

[13] = molecular target: T1, Polyadenylate-binding protein 1; assay: MLLE binding blockers, Cy5 peptide tracer – biochemical, fluorescence polarization, Cy5-PAM2 peptide, secondary, miRNA deadenylation inhibitor project, dose response (AID 602260); format: functional; settings: read-out: IC50_Mean
[14] = cytotoxicity toward Colo320 cells – cell-based, CellTiter-Glo luminescence, IC50, dose response (AID 1117334); format: functional; settings: COLO 320
[15] = cytotoxicity toward HT-29 cells – cell-based, CellTiter-Glo luminescence, IC50, dose response (AID 1117330); format: functional
[16] = cytotoxicity toward HCT116 cells – cell-based, CellTiter-Glo luminescence, IC50, dose response (AID 1117332); format: functional; settings: HCT-116
[17] = molecular target: E3 ubiquitin-protein ligase Mdm2 (Homo sapiens, UniProt Q00987); assay: MDM2-luc reporter signal enhancers, multi-concentration potency testing, MDM2 ubiquitin-protein ligase inhibitor program, whole-cell format, luminescence detection, 384-well microplate (AID 1394); format: functional;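 note: MDM2 E3 inhibitors raise luminescence so EC50 is for signal enhancement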
E3 ubiquitin-protein ligase Mdm2, sequence (Q00987 whole entry): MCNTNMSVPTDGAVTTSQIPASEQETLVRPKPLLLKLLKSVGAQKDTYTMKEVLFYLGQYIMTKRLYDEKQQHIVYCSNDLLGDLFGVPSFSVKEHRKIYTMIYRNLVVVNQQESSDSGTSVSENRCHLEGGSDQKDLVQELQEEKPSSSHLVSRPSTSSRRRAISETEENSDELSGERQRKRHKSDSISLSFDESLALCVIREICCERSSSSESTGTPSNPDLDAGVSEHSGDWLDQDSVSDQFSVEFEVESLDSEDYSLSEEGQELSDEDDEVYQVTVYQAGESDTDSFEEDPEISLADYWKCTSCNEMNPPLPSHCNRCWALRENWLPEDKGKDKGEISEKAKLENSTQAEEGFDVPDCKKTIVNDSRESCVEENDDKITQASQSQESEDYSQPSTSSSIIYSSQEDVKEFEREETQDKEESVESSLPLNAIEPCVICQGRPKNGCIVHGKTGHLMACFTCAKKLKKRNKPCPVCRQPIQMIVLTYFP

Cytochrome P450 1A2 = molecular target: T5, Cytochrome P450 1A2 (Homo sapiens, UniProt P05177);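 note: PubChem cytochrome P450 panel assay, CYP1A2 panel member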
T5 sequence (P05177 whole entry): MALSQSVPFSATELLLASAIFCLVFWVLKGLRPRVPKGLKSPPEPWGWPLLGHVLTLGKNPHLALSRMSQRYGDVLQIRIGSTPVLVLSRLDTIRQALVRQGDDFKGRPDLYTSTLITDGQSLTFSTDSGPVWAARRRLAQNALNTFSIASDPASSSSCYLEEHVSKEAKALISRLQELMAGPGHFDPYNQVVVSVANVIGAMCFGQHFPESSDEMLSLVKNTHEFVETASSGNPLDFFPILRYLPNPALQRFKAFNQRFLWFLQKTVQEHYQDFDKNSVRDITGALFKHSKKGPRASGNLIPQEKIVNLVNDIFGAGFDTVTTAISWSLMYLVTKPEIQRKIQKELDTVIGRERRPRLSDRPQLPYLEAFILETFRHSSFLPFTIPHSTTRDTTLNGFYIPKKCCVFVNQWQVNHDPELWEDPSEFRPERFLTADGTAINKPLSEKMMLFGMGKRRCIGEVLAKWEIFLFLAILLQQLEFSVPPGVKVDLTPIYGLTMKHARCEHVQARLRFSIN

Cytochrome P450 2C19 = Cytochrome P450 2C19 (Homo sapiens, UniProt P33261); assay: Cytochrome panel assay with activity outcomes. Panel member name: p450-cyp2c19 Compounds with AC50 equal or less than 10 uM are considered active; format: functional; settings: read-out: AC50
Cytochrome P450 2C19, sequence (P33261 whole entry): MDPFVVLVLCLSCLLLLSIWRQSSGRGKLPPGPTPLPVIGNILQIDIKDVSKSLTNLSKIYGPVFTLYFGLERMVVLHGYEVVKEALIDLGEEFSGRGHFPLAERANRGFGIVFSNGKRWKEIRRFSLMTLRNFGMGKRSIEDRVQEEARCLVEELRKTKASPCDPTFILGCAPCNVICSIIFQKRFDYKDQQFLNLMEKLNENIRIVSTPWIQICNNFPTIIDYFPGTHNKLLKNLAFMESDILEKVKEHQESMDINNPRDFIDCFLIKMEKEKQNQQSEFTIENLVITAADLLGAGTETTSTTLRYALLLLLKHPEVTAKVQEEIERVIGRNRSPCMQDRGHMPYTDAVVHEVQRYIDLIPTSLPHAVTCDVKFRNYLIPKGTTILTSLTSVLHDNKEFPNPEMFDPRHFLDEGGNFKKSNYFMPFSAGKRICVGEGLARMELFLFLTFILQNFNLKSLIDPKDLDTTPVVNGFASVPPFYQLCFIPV

[18] = viability loss in Vero cells – cytotoxicity control for Vif-APOBEC3G degradation inhibitor project, dose response (AID 1117358); format: functional; settings: Vero
[19] = HIV-1 Vif–A3G interaction blockers – biochemical, TR-FRET, GST-Vif 1-94, biotin-A3G peptide, dose response retest, primary screen (AID 1117319); format: functional;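 note: TR-FRET signal of purified GST-Vif binding a biotinylated A3G peptide; inhibitors lower the FRET signal by blocking Vif and A3G binding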

C/C(=N\NC(=O)c1cc2c(s1)CCC(C)C2)c1ccncc1 (stereo unspecified)
CC50 [1]: > 40 µM (active) | IC50 [2]: > 100 µM (active)

CC[n+]1c(-c2ccccc2)c2cc(N)ccc2c2ccc(N)cc21 [HOMIDIUM BROMIDE]
IC50 [3]: 3.35 µM (active) | IC50 [4]: > 10 µM (inactive) | IC50 [5]: 40.4 µM (inactive) | IC50 [6]: > 10 µM (inactive) | IC50 [7]: > 20 µM (inactive) | IC50 [8]: > 20 µM (inactive) | AC50 [9]: 27.4 µM (active) | AC50 [10]: 0.293 µM (active) | IC50 [11]: > 20 µM (inactive) | AC50 [12]: 2.42 µM (active) | IC50 [13]: > 66 µM (inactive) | IC50 [14]: > 20 µM (inactive) | IC50 [15]: > 20 µM (inactive) | IC50 [16]: 4.44 µM (active)

CCN(CC(=O)Nc1ccc(N2CCOCC2)cc1)Cc1nc2ccccc2c(=O)[nH]1
EC50 [17]: 0.03 µM (not active) | AC50 (Cytochrome P450 1A2): 20 µM (inconclusive) | AC50 (Cytochrome P450 2C19): 22.4 µM (inconclusive)

CC(C)(C)c1ccc(-c2nnc(SCCC#N)n2C2CCCC2)cc1
CC50 [18]: > 40 µM (active)

CC(C)NC(=O)C1CCCN(S(=O)(=O)c2cccs2)C1 (stereo unspecified)
IC50 [19]: > 100 µM (active)
